Reference: the NIST ThermoML archive (doi:10.1021/je050200w)

Test: xn = mol fraction of the nth substance listed
Details: 101 kPa, Liquid

CCCCCCCCCO [nonan-1-ol] + CCCCCCCCCCO
Details	mass density [kg/m3]	viscosity [mPa·s]
283.15 K, x1 = 0.1009	836.5	21.5
283.15 K, x1 = 0.2	836.4	21.12
283.15 K, x1 = 0.3	836.2	20.65
283.15 K, x1 = 0.4002	836	20.15
283.15 K, x1 = 0.5001	835.9	19.71
283.15 K, x1 = 0.6003	835.7	19.17
283.15 K, x1 = 0.6996	835.6	18.59
283.15 K, x1 = 0.7999	835.4	18.14
283.15 K, x1 = 0.9047	835.2	17.78
283.15 K, x1 = 1	835	17.44
288.15 K, x1 = 0.1009	833.2	17.44
288.15 K, x1 = 0.2	833	17.06
288.15 K, x1 = 0.3	832.8	16.69
288.15 K, x1 = 0.3999	832.7	16.2
288.15 K, x1 = 0.5001	832.5	15.82
288.15 K, x1 = 0.6003	832.3	15.44
288.15 K, x1 = 0.6996	832.2	15.2
288.15 K, x1 = 0.7999	832	14.85
288.15 K, x1 = 0.9047	831.8	14.48
288.15 K, x1 = 1	831.5	14.27
293.15 K, x1 = 0.1009	829.8	14.1
293.15 K, x1 = 0.2	829.6	13.73
293.15 K, x1 = 0.3	829.5	13.5
293.15 K, x1 = 0.3999	829.3	13.22
293.15 K, x1 = 0.5	829.1	13
293.15 K, x1 = 0.6003	829	12.48
293.15 K, x1 = 0.6996	828.8	12.36
293.15 K, x1 = 0.7999	828.6	12.09
293.15 K, x1 = 0.9047	828.4	11.83
293.15 K, x1 = 1	828.1	11.63
298.15 K, x1 = 0.1009	826.4	11.52
298.15 K, x1 = 0.2	826.2	11.36
298.15 K, x1 = 0.3	826.1	11.13
298.15 K, x1 = 0.4002	825.9	10.87
298.15 K, x1 = 0.5	825.7	10.62
298.15 K, x1 = 0.6003	825.5	10.38
298.15 K, x1 = 0.6996	825.4	10.17
298.15 K, x1 = 0.7999	825.1	9.933
298.15 K, x1 = 0.9047	824.9	9.725
298.15 K, x1 = 1	824.7	9.519
303.15 K, x1 = 0.1009	822.9	9.398
303.15 K, x1 = 0.2	822.8	9.242
303.15 K, x1 = 0.3	822.6	9.083
303.15 K, x1 = 0.4002	822.4	8.886
303.15 K, x1 = 0.5001	822.2	8.703
303.15 K, x1 = 0.6003	822	8.504
303.15 K, x1 = 0.6996	821.9	8.332
303.15 K, x1 = 0.7999	821.7	8.16
303.15 K, x1 = 0.9047	821.5	7.929
303.15 K, x1 = 1	821.3	7.806
308.15 K, x1 = 0.1009	819.5	7.867
308.15 K, x1 = 0.2	819.4	7.739
308.15 K, x1 = 0.3	819.1	7.613
308.15 K, x1 = 0.4002	819	7.453
308.15 K, x1 = 0.5	818.8	7.307
308.15 K, x1 = 0.6003	818.6	7.151
308.15 K, x1 = 0.6996	818.5	7.014
308.15 K, x1 = 0.7999	818.3	6.857
308.15 K, x1 = 0.9047	818	6.693
308.15 K, x1 = 1	817.8	6.604
313.15 K, x1 = 0.1009	816.1	6.704
313.15 K, x1 = 0.2	815.9	6.629
313.15 K, x1 = 0.3	815.7	6.517
313.15 K, x1 = 0.4002	815.6	6.4
313.15 K, x1 = 0.5001	815.3	6.234
313.15 K, x1 = 0.6003	815.2	6.15
313.15 K, x1 = 0.6996	815	6.026
313.15 K, x1 = 0.7999	814.8	5.87
313.15 K, x1 = 0.9047	814.5	5.779
313.15 K, x1 = 1	814.3	5.668
